Read-outs that look alike come from different tables or passages of the source.

These results are taken from EP0880966A1, “THIAMINE DISULFIDES AND MEDICINES CONTAINING THE SAME AS THE ACTIVE INGREDIENT” (NISSUI PHARMACEUTICAL CO., LTD., priority 1996, dated 1998).

The test system of this assay is CEM/LAV-1. As to conditions: for TCID50/ml / Inhibition rate (%): CEM/LAV-1 cells cultured 96 hours; for TCID50/ml: titer by 72-hour culture on MT-4 cells, control 4 x 10^5; for Inhibition rate (%): versus control without agent. The protocol:
A test agent was added at predetermined concentrations to cells (2 x 10^5 cells/ml, 10 ml) persistently infected with HIV in a logarithmic growth phase to culture the cells for 96 hours. The number of viable cells and the number of killed cells were counted every 24 hours by a trypan blue dye exclusion test to determine the cytotoxic effect of the test agent on the cells. A viral infectious titer (TCID50/ml) in each of the culture solutions incubated for 96 hours was determined by 72-hour culture using, as an index, the giant cell formation of MT-4 cells. In a control group, the cells were cultured in a medium free of any agent. An anti-HIV activity (inhibition %) was determined in accordance with the following equation: Anti-HIV activity (inhibition %) =(TC)/(TC)x 100 [formula]

In turn, `CCCCCCCCCCCCCC(=O)OCC/C(SS/C(CCOC(=O)CCCCCCCCCCCCC)=C(/C)N(C=O)Cc1cnc(C)nc1N)=C(\C)N(C=O)Cc1cnc(C)nc1N` [compound (1), thiamine disulfide dimyristate] came in with an inhibitory effect (CEM/LAV-1 cells, concentration of from 50 to 125 µm) of approximately 100%. Further, where the note is “Invention compound 50 µM”, the TCID50/ml was 8 x 10^2 TCID50/ml and the “Inhibition rate (%)” value worked out at 99.5%. Further, where the note is “Invention compound 125 µM”, the TCID50/ml is listed as 8 x 10^2 TCID50/ml and the “Inhibition rate (%)” value was 99.5%.
